Laboratory results published in patent US20230287027A1, “ADJUVANT WITH TLR4 AGONIST ACTIVITY” (Sumitomo Pharma Co., Ltd, priority 2020, published 2023).

Tests used:
mouse TLR4 = target: T1, mouse TLR4 (Mus musculus, UniProt Q9JHF9+Q9QUK6); assay: Mouse TLR4 reporter gene assay (Test 2); type: cell-based; settings: HEK-Blue mTLR4 cell line, SEAP reporter, 37° C. 16-20 hours, 0.1% DMSO; concentration giving half of maximal SEAP level induced with LPS
T1 construct: host or cells: HEK-Blue mTLR4 cell line
T1 sequence (Q9QUK6 26-835): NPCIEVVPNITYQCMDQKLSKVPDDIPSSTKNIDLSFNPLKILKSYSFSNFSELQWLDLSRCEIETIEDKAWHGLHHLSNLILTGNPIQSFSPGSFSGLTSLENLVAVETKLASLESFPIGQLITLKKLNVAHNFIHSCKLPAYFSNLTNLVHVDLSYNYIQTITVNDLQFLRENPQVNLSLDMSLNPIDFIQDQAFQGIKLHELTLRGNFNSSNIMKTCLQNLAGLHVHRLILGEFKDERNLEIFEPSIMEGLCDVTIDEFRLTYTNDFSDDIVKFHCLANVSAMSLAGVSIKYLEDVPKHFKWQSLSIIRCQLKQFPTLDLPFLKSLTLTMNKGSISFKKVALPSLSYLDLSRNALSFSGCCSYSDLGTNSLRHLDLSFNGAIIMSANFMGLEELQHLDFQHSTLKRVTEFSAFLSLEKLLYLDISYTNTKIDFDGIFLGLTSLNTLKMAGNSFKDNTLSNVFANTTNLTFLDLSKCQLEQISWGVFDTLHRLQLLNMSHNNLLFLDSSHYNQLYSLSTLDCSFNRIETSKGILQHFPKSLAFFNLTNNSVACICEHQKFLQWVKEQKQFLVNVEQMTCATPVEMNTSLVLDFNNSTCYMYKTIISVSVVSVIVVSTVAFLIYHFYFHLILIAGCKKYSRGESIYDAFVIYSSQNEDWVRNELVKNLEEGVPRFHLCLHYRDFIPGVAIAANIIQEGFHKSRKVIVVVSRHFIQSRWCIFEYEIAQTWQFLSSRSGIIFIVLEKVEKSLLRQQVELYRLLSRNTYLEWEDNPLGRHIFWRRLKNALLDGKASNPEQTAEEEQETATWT
T1 sequence (Q9JHF9 19-160): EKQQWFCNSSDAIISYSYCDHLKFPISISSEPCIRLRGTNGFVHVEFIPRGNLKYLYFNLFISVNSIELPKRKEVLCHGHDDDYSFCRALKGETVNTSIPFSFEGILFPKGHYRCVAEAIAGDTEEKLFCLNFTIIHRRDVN
Excerpt: Mouse TLR4 Reporter Gene Assay
HEK-Blue™ mTLR4 cell line (Invivogen) is a stably co-transfected cell line which expresses mouse TLR4, MD2, CD14 and secretory SEAP reporter gene under the transcriptional regulation of an NF-κB response element. The TLR4 expression of the cell line has been already tested by RT-PCR, flow cytometry. Transfectants with stable expression were selected using the antibiotic HEK-Blue™ Selection. TLR signaling leads to the translocation of NF-κB and the activation of the promoter results in expression of the SEAP gene. TLR4-specific activation was assessed by determining the level of SEAP produced following incubation of the cells at 37° C. for 16-20 hours with each compound prepared in Examples and Reference examples in the presence of 0.1% (v/v) DMSO. The mouse TLR4 activity for the present compound was assessed by mouse TLR4 reporter gene assay, and the concentration of the compound concentration which produced half of the maximal level of SEAP induced with LPS was determined as EC50.

human TLR4 = target: T2, human TLR4 (Homo sapiens, UniProt O00206+Q9Y6Y9); assay: Human TLR4 reporter gene assay (Test 1); type: cell-based; settings: HEK-Blue hTLR4 cell line, SEAP reporter, 37° C. 16-20 hours, 0.1% DMSO; concentration giving half of maximal SEAP level induced with LPS
T2 construct: host or cells: HEK-Blue hTLR4 cell line
T2 sequence (O00206 24-839): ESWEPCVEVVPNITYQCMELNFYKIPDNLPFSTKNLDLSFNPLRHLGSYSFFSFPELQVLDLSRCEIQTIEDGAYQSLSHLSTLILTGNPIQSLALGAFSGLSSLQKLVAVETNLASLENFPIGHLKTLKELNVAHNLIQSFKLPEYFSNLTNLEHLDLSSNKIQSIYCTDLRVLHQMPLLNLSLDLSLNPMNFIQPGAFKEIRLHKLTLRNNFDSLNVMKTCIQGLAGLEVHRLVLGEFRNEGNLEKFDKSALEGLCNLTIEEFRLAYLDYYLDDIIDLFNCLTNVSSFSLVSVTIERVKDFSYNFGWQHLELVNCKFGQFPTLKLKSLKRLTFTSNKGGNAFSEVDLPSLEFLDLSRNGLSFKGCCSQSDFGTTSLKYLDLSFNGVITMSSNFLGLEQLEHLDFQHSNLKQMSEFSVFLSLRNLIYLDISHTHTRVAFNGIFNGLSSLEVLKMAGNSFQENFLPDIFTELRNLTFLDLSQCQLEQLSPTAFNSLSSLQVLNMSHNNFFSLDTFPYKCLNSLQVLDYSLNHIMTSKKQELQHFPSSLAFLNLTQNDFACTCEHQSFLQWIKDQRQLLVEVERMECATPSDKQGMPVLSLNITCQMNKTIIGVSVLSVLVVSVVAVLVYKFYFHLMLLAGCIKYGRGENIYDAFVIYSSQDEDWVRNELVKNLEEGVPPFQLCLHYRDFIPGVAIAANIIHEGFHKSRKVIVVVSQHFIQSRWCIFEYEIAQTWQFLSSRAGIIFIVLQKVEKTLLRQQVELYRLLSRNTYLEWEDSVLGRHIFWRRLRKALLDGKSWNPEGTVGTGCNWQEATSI
T2 sequence (Q9Y6Y9 17-160 limits assumed): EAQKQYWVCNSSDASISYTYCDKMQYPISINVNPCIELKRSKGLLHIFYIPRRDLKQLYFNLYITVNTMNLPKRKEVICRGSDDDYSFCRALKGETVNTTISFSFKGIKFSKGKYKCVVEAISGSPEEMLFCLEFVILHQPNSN
Excerpt: Human TLR4 Reporter Gene Assay
HEK-Blue™ hTLR4 cell line (Invivogen Corporation) is a stably co-transfected cell line which expresses human TLR4, MD2, CD14, and secretory alkaline phosphatase (SEAP) reporter gene under the transcriptional regulation of an NF-κB response element. The TLR4 expression of the cell line has been already tested by RT-PCR, flow cytometry. Transfectants with stable expression were selected using the antibiotic HEK-Blue™ Selection. TLR signaling leads to the translocation of NF-κB and the activation of the promoter results in expression of the SEAP gene. TLR4-specific activation was assessed by determining the level of SEAP produced following incubation of the cells at 37° C. for 16-20 hours with each compound prepared in Examples and Reference examples in the presence of 0.1% (v/v) DMSO. The human TLR4 activity for the present compound was assessed by human TLR4 reporter gene assay, and the concentration of the compound concentration which produced half of the maximal level of SEAP induced with lipopolysaccharide (LPS) was determined as EC50.

Row | Compound | EC50 (mouse TLR4) [nM] | EC50 (human TLR4) [nM] | mouse TLR4 EC50 (mouse TLR4) [µg/mL] | human TLR4 EC50 (human TLR4) [µg/mL]
1 | CCCCCCCCCCC[C@H](CC(=O)NC(COC1OC(CO)C(OP(=O)(O)O)C(OC(=O)C[C@@H](CCCCCCCCCCC)OC(=O)CCCCCCCCC)C1NC(=O)C[C@@H](CCCCCCCCCCC)OC(=O)CCCCCCCCc1ccccc1)C(=O)O)OC(=O)CCCCCCCCC (single isomer, unassigned) [compound 11] | 50.3 | 457 |  | 
2 | CCCCCCCCCCC[C@H](CC(=O)NC(COC1OC(CO)C(OP(=O)(O)O)C(OC(=O)C[C@@H](CCCCCCCCCCC)OC(=O)CCCCCCCCC)C1NC(=O)C[C@@H](CCCCCCCCCCC)OC(=O)CCCCCCCCc1ccccc1)C(=O)O)OC(=O)CCCCCCCCC (single isomer, unassigned) [compound 12] | > 645 | > 645 |  | 
3 | CCCCCCCCCCC[C@H](CC(=O)NC1C(OC[C@@H](NC(=O)C[C@@H](CCCCCCCCCCC)OC(=O)CCCCCCCCC)C(=O)O)OC(CO)C(O)C1OC(=O)C[C@@H](CCCCCCCCCCC)OC(=O)CCCCCCCCC)OC(=O)CCCCCCCCc1ccccc1 (stereo partly drawn) [Example 3, (2R)-2-{[(3R)-3-(decanoyloxy)tetradecanoyl]amino}-3-{[4-{[(3R)-3-(decanoyloxy)tetradecanoyl]oxy}-5-hydroxy-6-(hydroxymethyl)-3-({(3R)-3-[(9-phenylnonanoyl)oxy]tetradecanoyl}amino)oxan-2-yl]oxy}propanoic acid] | 137 | 161 |  | 
4 | CCCCCCCCCCC[C@H](CC(=O)NC(COC1OC(CO)C(O)C(OC(=O)C[C@@H](CCCCCCCCCCC)OC(=O)CCCCCCCCC)C1NC(=O)C[C@@H](CCCCCCCCCCC)OC(=O)CCCCCCCCC)C(=O)O)OC(=O)CCCCCCCCc1ccccc1 (stereo partly drawn) [Example 5, (2S)-2-({[(3R)-3-(9-phenylnonanoyl)oxy]tetradecanoyl}amino)-3-{[3-{[(3R)-3-(decanoyloxy)tetradecanoyl]amino}-5-hydroxy-6-(hydroxymethyl)-4-({(3R)-3-(decanoyloxy)tetradecanoyl}oxy)oxan-2-yl]oxy}propanoic acid] | 49.7 | 101 |  | 
5 | CCCCCCCCCCC[C@H](CC(=O)NC(COC1OC(CO)C(OP(=O)(O)O)C(OC(=O)C[C@@H](CCCCCCCCCCC)OC(=O)CCCCCCCCc2ccccc2)C1NC(=O)C[C@@H](CCCCCCCCCCC)OC(=O)CCCCCCCCC)C(=O)O)OC(=O)CCCCCCCCC (stereo partly shown) [Reference example 10] | 12.9 | 12.9 |  | 
6 | CCCCCCCCCCC[C@H](CC(=O)NC(COC1OC(CO)C(OP(=O)(O)O)C(OC(=O)C[C@@H](CCCCCCCCCCC)OC(=O)CCCCCCCCC)C1NC(=O)C[C@@H](CCCCCCCCCCC)OC(=O)CCCCCCCCC)C(=O)O)OC(=O)CCCCCCCCc1ccccc1 (stereo partly shown) [compound 13] | 13.5 | 34.2 |  | 
7 | CCCCCCCCCCC[C@H](CC(=O)NC(COC1OC(CO)C(OP(=O)(O)O)C(OC(=O)C[C@@H](CCCCCCCCCCC)OC(=O)CCCCCCCCC)C1NC(=O)C[C@@H](CCCCCCCCCCC)OC(=O)CCCCCCCCC)C(=O)O)OC(=O)CCCCCCCCc1ccccc1 (stereo partly shown) [compound 14] | 14.2 | 14.2 |  | 
8 | (2R)-2-({[(3R)-3-(9-phenylnonanoyl)oxy]tetradecanoyl}amino)-3-{[3-{[(3R)-3-(decanoyloxy)tetradecanoyl]amino}-5-hydroxy-6-(hydroxymethyl)-4-({(3R)-3-(decanoyloxy)tetradecanoyl}oxy)oxan-2-yl]oxy}propanoic acid [Example 4] |  |  | 0.057 | 0.077
